Test results taken from patent US6596265B1, “Use of sophorolipids comprising diacetyl lactones as agent for stimulating skin fibroblast metabolism” (Institut Français du Pétrole, priority 1998, dated 2003).
“And” between values parts separate entries of the source, which are not always exact repeats. Equal entries are not always repeated. Marks after values point to notes of the source that are not given here.

Columns and labels:
Assay type in all cases: cell-based
Details in all cases: 100 μg/ml, 3 days incubation
[1] = system: normal human dermal fibroblasts; experiment: DNA content of fibroblast cell layers (cell division), HOECHST 33258 fluorimetry
Protocol: The effects of the product on cell division were evaluated by measuring the DNA and proteins in the cell layers after 3 days of incubation. Fibroblasts were isolated from the operative residue of abdominal plastic surgery carried out on a person. The cells were cultivated in fibroblast culture medium (FCM) at 37° C. in a moist atmosphere containing 5% of CO2 until confluence of the monolayers. The culture medium used was fibroblast culture medium (FCM), constituted by MEM/M199 (¾, ¼, v/v) with added penicillin (50 IU/ml), streptomycin (50 μg/ml), sodium bicarbonate (0.2%, wv/v) and SVF (10%, v/v). The fibroblast incubation medium (FIM) with the products was constituted by MEM/M199 (¾, ¼, v/v) with added penicillin (50 IU/ml), streptomycin (50 μg/ml), sodium bicarbonate (0.2%, w/v) and SVF (2%, v/v). It contained 1 μCi/ml of tritiated proline. The purified lactone fraction was diluted in FIM and was tested at 0.02, 0.08 and 0.4 μg/ml (dry matter). The ascorbic acid was tested at 100 μg/ml (0.5 mM) in FIM. The fibroblast cultures were incubated for 3 days at 37° C. in a moist atmosphere containing 5% of CO2. Reference cultures, incubated in the absence of the products to be tested, were produced in parallel. The tests were carried out in triplicate. After incubation, the incubation media were removed then the cell layers were rinsed with PBS The cells were then lysed by ultrasound. The DNA was assayed using a fluorimetric method using HOECHST 33258 reactant. The proteins in the cell lysate were assayed using the Coomassie Blue method described by Bradford. These assays ensured a suitable interpretation of the results obtained for collagen neosynthesis. Treatment of data: the groups of data (reference group and treated groups) were processed by a one-way variance analysis (ANOVA 1, p<0.05) followed by a Dunnett test (p<0.05). The effect of the products was thus compared with the control group.

[2] = system: normal human dermal fibroblast cultures; experiment: Protein content of fibroblast cell layers (cell division), Coomassie Blue/Bradford
Protocol: The effects of the product on cell division were evaluated by measuring the DNA and proteins in the cell layers after 3 days of incubation. Fibroblasts were isolated from the operative residue of abdominal plastic surgery carried out on a person. The cells were cultivated in fibroblast culture medium (FCM) at 37° C. in a moist atmosphere containing 5% of CO2 until confluence of the monolayers. The culture medium used was fibroblast culture medium (FCM), constituted by MEM/M199 (¾, ¼, v/v) with added penicillin (50 IU/ml), streptomycin (50 μg/ml), sodium bicarbonate (0.2%, wv/v) and SVF (10%, v/v). The fibroblast incubation medium (FIM) with the products was constituted by MEM/M199 (¾, ¼, v/v) with added penicillin (50 IU/ml), streptomycin (50 μg/ml), sodium bicarbonate (0.2%, w/v) and SVF (2%, v/v). It contained 1 μCi/ml of tritiated proline. The purified lactone fraction was diluted in FIM and was tested at 0.02, 0.08 and 0.4 μg/ml (dry matter). The unrefined sophorolipids were tested at 0.08; 0.4 and 2 μg/ml. The ascorbic acid was tested at 100 μg/ml (0.5 mM) in FIM. The fibroblast cultures were incubated for 3 days at 37° C. in a moist atmosphere containing 5% of CO2. Reference cultures, incubated in the absence of the products to be tested, were produced in parallel. The tests were carried out in triplicate. […]

[3] = system: normal human dermal fibroblast cultures; experiment: Collagen neosynthesis: tritiated proline incorporation into secreted collagens (culture medium, >30 kD)
Description: The effect of purified lactones on the synthesis of collagens in normal human dermal fibroblast cultures was studied. Collagyens are quantitatively the major dermal proteins. Proline and hydroxyproline constitute 30% of the constituent amino acids of collagens (a high percentage and much higher than that of the majority of other fibroblast proteins). Hydroxyproline is not an amino acid incorporated during the synthesis of collagens, as is the case with proline. Hydroxylation of proline, which leads to the presence of hydroxyproline in collagens, is a collagen maturation process which occurs once synthesis is complete. […] Collagen neosynthesis was measured by monitoring the incorporation of radiolabelled proline into newly synthesised fibroblast proteins. […] Fractions (1) and (2) were measured together and grouped under the title “cell layer collagens”. […] Measurement of incorporation of tritiated proline into “secreted collagens”: the incorporation of tritiated proline into neosynthesised collagens secreted in the culture medium was evaluated after 3 days of incubation. […] The radioactivity of the high molecular weight protein fraction (retained on the filters) corresponded almost exclusively to the secreted collagens and was measured by liquid scintillation with a β particle counter. […]

[4] = system: normal human dermal fibroblast cultures; experiment: Collagen neosynthesis: tritiated proline incorporation into cell layer collagens
Description: The effect of purified lactones on the synthesis of collagens in normal human dermal fibroblast cultures was studied. Collagyens are quantitatively the major dermal proteins. Proline and hydroxyproline constitute 30% of the constituent amino acids of collagens (a high percentage and much higher than that of the majority of other fibroblast proteins). Hydroxyproline is not an amino acid incorporated during the synthesis of collagens, as is the case with proline. Hydroxylation of proline, which leads to the presence of hydroxyproline in collagens, is a collagen maturation process which occurs once synthesis is complete. Measuring the incorporation of tritiated proline into fibroblast proteins thus provides a good index of collagen neosynthesis. […] Collagen neosynthesis was measured by monitoring the incorporation of radiolabelled proline into newly synthesised fibroblast proteins. […] Fractions (1) and (2) were measured together and grouped under the title “cell layer collagens”. […] Measurement of incorporation of tritiated proline into “cell layer collagens” the incorporation of tritiated proline into neosynthesised fibroblast proteins, the proteins present in the cells and deposited in the extracellular matrix, was evaluated after 3 days of incubation. The radioactivity of the cell lysate obtained as described above was measured by liquid scintillation with a β particle counter. […]

## O=C1O[C@H]([C@@H](O)CO)C(O)=C1O [Ascorbic acid, ascorbic acid]
[1]
  DNA content, percentage of control: 90 percentage of control
[1]; mean of triplicate
  DNA content, mean: 7.5 μg/cell layer
[1]; single replicate
  DNA content, individual culture: 10 μg/cell layer and 6 μg/cell layer (2×)
[2]
  Proteins in cell layer: 108 % of reference
[3]
  Secreted collagens (culture medium): 181%* % of control
[3]; factor versus control
  Increase of secreted collagens, factor: 1.81
[4]
  Cell layer collagens: 168%* % of control
[4]; factor versus control
  Increase of cell layer collagens, factor: 0.68
